The text below walks through data of publication PMC7790160 (Journal of pharmaceutical sciences, 2020).

The subject of data set [1] is HCC827. As to the kind of experiment: Cytotoxicity assay. The class given is cell-based. The note with it: HCC827, 48 h, single agent; no unit printed in Table 3 (b74 gives μM).
In data set [2] the test system is HCC827–4 μM (Acquired 4 μM ERL Resistant). The data set is described as follows: Cytotoxicity assay. It counts as cell-based. The note with it: 48 h, single agent, no unit printed in Table 3 (b74 gives μM).
The subject of data set [3] is HCC827-Cl4 (T790M EGFR ERL Resistant). As to the kind of experiment: Cytotoxicity assay. Conditions: HCC827-CL4, 48 h, single agent; no unit printed in Table 3 (b74 gives μM). The class given is cell-based.
The subject of data set [4] is H1975 (T790M EGFR ERL Resistant). As to the kind of experiment: Cytotoxicity assay. It counts as cell-based. The note with it: H1975, 48 h, single agent; no unit printed in Table 3 (b74 gives μM).
Data set [5] deals with H1975-CL1 (EGFR G796D mutation rociletinib resistant). As to the kind of experiment: Cytotoxicity assay. The class given is cell-based. The note with it: H1975 CL1, 48 h, single agent; no unit printed in Table 3 (b74 gives μM).
The subject of another data set is H460 (KRAS mutated). The data set is described as follows: Cytotoxicity assay. It counts as cell-based.
The test system of a further data set is H1299 (p53 mutated). As to the kind of experiment: Cytotoxicity assay. The class given is cell-based. Conditions: H1299, 48 h, single agent.
Another data set relates to NSCLC cell lines. As to the kind of experiment: Cytotoxicity assay, statements across cell lines. It counts as cell-based.
For data set [6], the system named is HCC827. The data set is described as follows: Apoptosis assay. Conditions: 12 μM ERL, 2 μM CDODA-Me alone or in combination, 48 h. It counts as cell-based.
A further data set concerns total EGFR. As to the kind of experiment: Western blot analysis of total EGFR. The class given is cell-based. Conditions: all cell lines, 48 h.
The subject of the next data set is total MET. As to the kind of experiment: Western blot analysis of total MET. It counts as cell-based. Conditions: all cell lines, 48 h.
The conditions of data set [7]: cited from earlier work.
The next data set deals with HCC827–4μM. As to the kind of experiment: Apoptosis assay. It counts as cell-based. The note with it: 12 μM ERL alone or with 2 μM CDODA-Me, 48 h.
The next data set deals with HCC827-CL4. As to the kind of experiment: Apoptosis assay. The class given is cell-based. The note with it: 12 μM ERL alone or with 2 μM CDODA-Me, 48 h.
The next data set relates to H1975. As to the kind of experiment: Apoptosis assay. The class given is cell-based. Conditions: 12 μM ERL alone or with 2 μM CDODA-Me, 48 h.
A further data set has as its system H1975-CL1. The data set is described as follows: Apoptosis assay. The class given is cell-based. Conditions: 12 μM ERL alone or with 2 μM CDODA-Me, 48 h.
The subject of data set [8] is H460. The data set is described as follows: Apoptosis assay. The class given is cell-based. The note with it: 12 μM ERL alone or with 2 μM CDODA-Me, 48 h.
The test system of data set [9] is HCC827. As to the kind of experiment: Clonogenic assay. It counts as cell-based. Conditions: 12 μM ERL, 48 h, reseeded, p < 0.001.
The next data set has as its system HCC827–4 μM. The data set is described as follows: Clonogenic assay. It counts as cell-based. Conditions: 12 μM ERL, 48 h, reseeded, p < 0.001.
Data set [10] has as its system H460. As to the kind of experiment: Clonogenic assay. The class given is cell-based. Conditions: 12 μM ERL, 48 h, reseeded, p < 0.001.
Another data set has as its system p-EGFR. The data set is described as follows: Western blot analysis of p-EGFR. The note with it: 48 h. The class given is cell-based.
The next data set relates to p-MET. As to the kind of experiment: Western blot analysis of p-MET. It counts as cell-based. Conditions: 12 μM ERL alone or with 2 μM CDODA-Me, 48 h.
Data set [11] concerns EGFR mutated non–small cell lung cancer. The note with it: patients harboring exon 19 deletion / exon 21 EGFR mutations; cited from earlier work.

Bounds are passed on as bounds.

With `COC(=O)[C@@]1(C)CC[C@]2(C)CC[C@]3(C)C(=CC(=O)[C@@H]4[C@@]5(C)C=C(C#N)C(=O)C(C)(C)[C@@H]5CC[C@]43C)[C@@H]2C1` [CDODA-Me, Methyl 2-cyano-3, 11-dioxo-18b-olean-1, 12-dien-30-oate], the IC50 in the data set with HCC827 [1] turned out to be 4.5 ± 1.6 µM; in [2], 4.4 ± 1.3 µM; in [3] it was 5.7 ± 2.04 µM; in data set [4], 6.2 ± 1.64 µM; in data set [5] it was 6.6 ± 1.1 µM; in the data set with H460 (KRAS mutated) (H460, 48 h, single agent, no unit printed in Table 3 (b74 gives μM)), 5.5 ± 0.8 µM. The compound also returned a half-inhibitory concentration (IC50) with H1299 (p53 mutated) of 5.4 ± 2.4 µM. In the data set on NSCLC cell lines (2 μM, all cell lines), this compound gave a cell viability of less than 20%. In addition, the IC20 in the data set with NSCLC cell lines (resistant HCC827 cells) amounted to 2 µM. Further, the apoptotic cells entry in the data set with HCC827 [6] was “approximately 21.68 ± 1.8%”. In the data set on total EGFR, the “total EGFR expression” value is listed as “no effect”. Besides, the “total MET expression” value in the data set on total MET is listed as “no effect”. Besides, in [7], the “permeability (classification)” value was “high permeability”. In data set [7], the “solubility (classification)” value was “low solubility”.
In the case of `C#Cc1cccc(Nc2ncnc3cc(OCCOC)c(OCCOC)cc23)c1` [ERL, erlotinib], the half-inhibitory concentration (IC50) in the data set on H460 (KRAS mutated) (Homo sapiens, NCI-H460, 48 h) turned out to be 16.3 ± 1.2 µM. For the same compound, the apoptotic cells in the data set on HCC827 [6] is roughly 64.23 ± 1.7%; with HCC827–4μM, 11 ± 2.9%; in the data set on HCC827-CL4 it was 8 ± 2.5%; with H1975 it was 15 ± 3.7%; in the data set on H1975-CL1, 9 ± 2.7%; in the data set on H460 [8], 5 ± 4.3%. Moreover, the colony formation entry with HCC827 [9], in the data set with HCC827–4 μM and in the data set on H460 [10] was “decreased colony formation” in each case. In addition, in the data set on p-EGFR (H1975-CL1, 12 μM ERL alone or with 2 μM CDODA-Me), the p-EGFR expression entry is listed as “not significant”. In addition, in the data set on p-EGFR (HCC827, 12 μM ERL (p < 0.01) or 12 μM ERL + 2 μM CDODA-Me (p < 0.05)), the P-EGFR expression result was “significantly decreased”. The “expression of p-MET” value is given as “decreased p-MET expression” in the data set with p-MET (H1975-CL1, p < 0.001); “decreased p-MET expression” in the data set with p-MET (H1975, p < 0.01); “decreased p-MET expression” in the data set with p-MET (HCC827-CL4, p < 0.01). Besides, the “patients with decreased tumor volume” value in data set [11] is on record as 70%.
